From patent US11236078B2, “Heterocyclic inhibitors of the sodium channel” (priority 2014, dated 2022)

How the values were obtained:
Format in all cases: cell-based
rat Nav1.2 (rNav1.2) [1] = molecular target: T1, rat Nav1.2 (rNav1.2) (Rattus norvegicus, UniProt P04775); assay: rNav1.2 slow inactivation block, manual patchclamp; settings: HEK 293F cells stably expressing rNav1.2
T1 construct: expressed in transfected cells
Source text: (§1) The generation of HEK 293F cell lines stably expressing human Nav1.7 (h Nav1.7), human Nav1.5 (hNav1.5) and rat Nav1.2 (r Nav1.2) was achieved by subcloning SCN9A, SCN5A, and SCN2A genes into inducible expression vectors followed by transfection into target cells using standard techniques. In the case of h Nav1.7, an expression vector encoding the human Navβ1 auxiliary subunit gene, SCN1B, was co-transfected with the expression vector bearing the SCN9A gene. Clones were selected using appropriate selection agents (0.3 mg/mL Zeocin and 0.8 mg/mL Geneticin) and maintained in Dulbecco's Modified Eagle medium, 10% fetal bovine serum, 1% non-essential amino acids to ˜80% confluence at 37° C. in a humidified incubator with 95% atmosphere and 5% CO2.
(§2) On the day of each experiment, cells that were grown to 80% confluence in a T75 flask were harvested for use on PatchXpress (Molecular Devices, CA, USA). Following a recovery period at 37° C. in a humidified incubator with 95% atmosphere and 5% CO2 in Dulbecco's Modified Eagle Medium, the media was replaced with an external recording solution containing (in mM): 90 TEACl, 50 NaCl, 1.8 CaCl2, 1 MgCl2, 10 HEPES, 10 glucose, adjusted to pH 7.4 with TEAOH and 300 mOsm with sucrose. The internal recording solution contained (in mM): 129 CsF, 2 MgCl2, 11 EGTA, 10 HEPES, 6 NaCl, 3 Na2ATP adjusted to pH 7.2 with CsOH and 280 mOsm with sucrose. The automated liquid handling facility of PatchXpress dispensed cells and added compound. Modulation of Nav1.7 channels by compounds was assessed by promoting the channels into the inactivated state using a conditioning voltage pulse of variable amplitude, followed by a brief hyperpolarizing pulse with a subsequent depolarized voltage step to measure the current amplitude in the presence and absence of compound.
(§3) In some cases, the potency of compounds was measured using either the Patchliner automated patch clamp platform (Nanion) or manual patch clamp techniques. Both approaches allowed the compounds to be characterized based upon the ability of a compound to modulate use- and/or state-dependence across human Nav1.7 (hNav1.7), human Nav1.5 (hNav1.5) and rat Nav1.2 (rNav1.2). The potency data is tabulated in Table 2 and is represented by six data fields. Three of the six fields represent potency data measured with the Patchliner automated platform under varying use- and state-dependent electrophysiology protocols similar to the PatchXpress protocols detailed above. For example, the second data column describes the potency of compounds in their ability to block 50% of Nav1.7 channels when the channel is repetitively activated by depolarizing voltage potentials to induce slow inactivation in approximately 50% of channels (Table 2: h Nav1.7: IC50 Slow Inactivation Block, Automated Patchclamp). The next three data fields describe the data generated from manual patchclamp electrophysiology measurements using similar methods to those employed for automated patchclamp studies.

rat Nav1.2 (rNav1.2) [2] = molecular target: T1, rat Nav1.2 (rNav1.2); assay: rNav1.2 slow inactivation block, automated patchclamp; settings: HEK 293F cells stably expressing rNav1.2
Source text: as §1, §2, §3

human Nav1.7 (hNav1.7) [3] = molecular target: T2, human Nav1.7 (hNav1.7) (Homo sapiens, UniProt Q15858); assay: hNav1.7 slow inactivation block, manual patchclamp; settings: HEK 293F cells stably expressing hNav1.7, slow inactivation induced in approximately 50% of channels
T2 construct: expressed in transfected cells
Source text: as §1, §2, §3

human Nav1.5 (hNav1.5) [4] = molecular target: T3, human Nav1.5 (hNav1.5) (Homo sapiens, UniProt Q14524); assay: hNav1.5 slow inactivation block, manual patchclamp; settings: HEK 293F cells stably expressing hNav1.5
T3 construct: expressed in transfected cells
T3 sequence (Q14524 whole entry): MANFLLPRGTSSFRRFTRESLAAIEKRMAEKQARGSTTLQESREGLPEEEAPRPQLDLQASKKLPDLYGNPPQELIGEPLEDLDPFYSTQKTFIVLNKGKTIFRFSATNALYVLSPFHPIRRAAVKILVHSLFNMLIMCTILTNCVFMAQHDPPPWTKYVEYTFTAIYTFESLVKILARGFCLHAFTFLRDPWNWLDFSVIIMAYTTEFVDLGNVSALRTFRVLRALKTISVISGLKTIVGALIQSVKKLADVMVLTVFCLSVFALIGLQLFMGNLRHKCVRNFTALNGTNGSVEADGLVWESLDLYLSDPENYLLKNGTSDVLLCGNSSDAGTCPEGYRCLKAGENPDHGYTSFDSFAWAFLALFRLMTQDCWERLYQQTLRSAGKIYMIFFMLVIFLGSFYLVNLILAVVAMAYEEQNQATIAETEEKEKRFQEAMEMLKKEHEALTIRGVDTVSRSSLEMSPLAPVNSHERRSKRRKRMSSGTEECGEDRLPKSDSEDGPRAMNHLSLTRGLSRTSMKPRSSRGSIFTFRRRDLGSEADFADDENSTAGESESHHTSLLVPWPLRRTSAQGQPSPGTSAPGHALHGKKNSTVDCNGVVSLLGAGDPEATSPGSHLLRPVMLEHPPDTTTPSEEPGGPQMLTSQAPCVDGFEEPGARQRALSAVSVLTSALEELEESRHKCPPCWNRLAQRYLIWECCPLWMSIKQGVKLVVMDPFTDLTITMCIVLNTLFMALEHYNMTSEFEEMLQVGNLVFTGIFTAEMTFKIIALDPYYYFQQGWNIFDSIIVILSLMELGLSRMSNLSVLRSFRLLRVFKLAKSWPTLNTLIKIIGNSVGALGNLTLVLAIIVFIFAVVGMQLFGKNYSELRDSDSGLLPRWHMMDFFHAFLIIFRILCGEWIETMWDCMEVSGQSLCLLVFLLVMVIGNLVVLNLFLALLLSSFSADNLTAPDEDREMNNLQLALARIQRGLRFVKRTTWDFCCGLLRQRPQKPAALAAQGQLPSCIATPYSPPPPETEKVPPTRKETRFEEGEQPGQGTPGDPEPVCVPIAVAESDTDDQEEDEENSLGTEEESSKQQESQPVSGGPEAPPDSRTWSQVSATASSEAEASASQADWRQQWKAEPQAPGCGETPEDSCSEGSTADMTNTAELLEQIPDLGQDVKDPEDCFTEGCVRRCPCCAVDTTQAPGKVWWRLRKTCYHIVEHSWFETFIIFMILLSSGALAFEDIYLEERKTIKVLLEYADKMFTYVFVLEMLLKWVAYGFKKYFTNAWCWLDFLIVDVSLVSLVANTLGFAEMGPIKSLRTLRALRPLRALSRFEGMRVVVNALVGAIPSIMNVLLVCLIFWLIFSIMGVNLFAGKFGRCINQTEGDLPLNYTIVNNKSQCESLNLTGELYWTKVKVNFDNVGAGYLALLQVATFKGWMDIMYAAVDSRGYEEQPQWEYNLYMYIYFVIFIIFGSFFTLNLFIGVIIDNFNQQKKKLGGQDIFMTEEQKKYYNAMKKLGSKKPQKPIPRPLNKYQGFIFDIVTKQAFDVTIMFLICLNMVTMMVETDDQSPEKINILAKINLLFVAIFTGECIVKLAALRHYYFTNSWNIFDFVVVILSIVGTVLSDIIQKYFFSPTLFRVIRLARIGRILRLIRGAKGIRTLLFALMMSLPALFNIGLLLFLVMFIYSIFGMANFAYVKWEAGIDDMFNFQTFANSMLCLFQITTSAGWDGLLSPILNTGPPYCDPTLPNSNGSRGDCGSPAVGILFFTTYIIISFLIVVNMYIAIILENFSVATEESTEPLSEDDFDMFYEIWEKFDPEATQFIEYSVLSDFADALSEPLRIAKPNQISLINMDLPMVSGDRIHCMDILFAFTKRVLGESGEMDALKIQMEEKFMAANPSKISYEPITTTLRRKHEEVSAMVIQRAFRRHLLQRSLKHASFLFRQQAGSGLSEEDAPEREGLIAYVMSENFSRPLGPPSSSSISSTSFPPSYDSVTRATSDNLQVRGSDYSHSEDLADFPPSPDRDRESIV
Source text: as §1, with “CO2. […]” for “CO2.”
as §2, §3

human Nav1.7 (hNav1.7) [5] = molecular target: T2, human Nav1.7 (hNav1.7); assay: hNav1.7 slow inactivation block, automated patchclamp; settings: HEK 293F cells stably expressing hNav1.7, slow inactivation induced in approximately 50% of channels
Source text: as §1, §2, §3

human Nav1.5 (hNav1.5) [6] = molecular target: T3, human Nav1.5 (hNav1.5); assay: hNav1.5 slow inactivation block, automated patchclamp; settings: HEK 293F cells stably expressing hNav1.5
Source text: as §1
Inhibition of the TTX-resistant Nav1.5 sodium channel, a key cardiac ion channel, can have profound effects on the duration and amplitude of the cardiac action potential and can result in arrhythmias and other heart malfunctions. To assess the potential cardiac liability of compounds at an early stage in the drug discovery process, a Nav1.5 sodium channel screening assay can be performed on Molecular Device's PatchXpress™ automated electrophysiology platform. Under voltage-clamp conditions, Nav1.5 currents can be recorded from HEK cells expressing the human Nav1.5 channel in the absence and presence of increasing concentrations of the test compound to obtain an IC50 value. The external recording solution can contain (in mM): 90 TEACl, 50 NaCl, 1.8 CaCl, 1 MgCl2, 10 HEPES, 10 glucose, adjusted to pH 7.4 with TEA-OH and to 300 mOsm with sucrose (if necessary), while the internal patch pipette solution contained (in mM): 129 CsF, 2 MgCl2, 11 EGTA, 10 HEPES, 3 Na2ATP adjusted to pH 7.2 with CsOH and to 290 mOsm with sucrose (if necessary). Nav1.5 channel currents can be evoked using a cardiac action potential waveform at 1 Hz, digitized at 31.25 kHz and low-pass filtered at 12 kHz.
as §2
In some cases, the potency of compounds was measured using either the Patchliner automated patch clamp platform (Nanion) or manual patch clamp techniques. Both approaches allowed the compounds to be characterized based upon the ability of a compound to modulate use- and/or state-dependence across human Nav1.7 (hNav1.7), human Nav1.5 (hNav1.5) and rat Nav1.2 (rNav1.2). The potency data is tabulated in Table 2 and is represented by six data fields. Three of the six fields represent potency data measured with the Patchliner automated platform under varying use- and state-dependent electrophysiology protocols similar to the PatchXpress protocols detailed above. […]

T1 sequence (P04775 whole entry): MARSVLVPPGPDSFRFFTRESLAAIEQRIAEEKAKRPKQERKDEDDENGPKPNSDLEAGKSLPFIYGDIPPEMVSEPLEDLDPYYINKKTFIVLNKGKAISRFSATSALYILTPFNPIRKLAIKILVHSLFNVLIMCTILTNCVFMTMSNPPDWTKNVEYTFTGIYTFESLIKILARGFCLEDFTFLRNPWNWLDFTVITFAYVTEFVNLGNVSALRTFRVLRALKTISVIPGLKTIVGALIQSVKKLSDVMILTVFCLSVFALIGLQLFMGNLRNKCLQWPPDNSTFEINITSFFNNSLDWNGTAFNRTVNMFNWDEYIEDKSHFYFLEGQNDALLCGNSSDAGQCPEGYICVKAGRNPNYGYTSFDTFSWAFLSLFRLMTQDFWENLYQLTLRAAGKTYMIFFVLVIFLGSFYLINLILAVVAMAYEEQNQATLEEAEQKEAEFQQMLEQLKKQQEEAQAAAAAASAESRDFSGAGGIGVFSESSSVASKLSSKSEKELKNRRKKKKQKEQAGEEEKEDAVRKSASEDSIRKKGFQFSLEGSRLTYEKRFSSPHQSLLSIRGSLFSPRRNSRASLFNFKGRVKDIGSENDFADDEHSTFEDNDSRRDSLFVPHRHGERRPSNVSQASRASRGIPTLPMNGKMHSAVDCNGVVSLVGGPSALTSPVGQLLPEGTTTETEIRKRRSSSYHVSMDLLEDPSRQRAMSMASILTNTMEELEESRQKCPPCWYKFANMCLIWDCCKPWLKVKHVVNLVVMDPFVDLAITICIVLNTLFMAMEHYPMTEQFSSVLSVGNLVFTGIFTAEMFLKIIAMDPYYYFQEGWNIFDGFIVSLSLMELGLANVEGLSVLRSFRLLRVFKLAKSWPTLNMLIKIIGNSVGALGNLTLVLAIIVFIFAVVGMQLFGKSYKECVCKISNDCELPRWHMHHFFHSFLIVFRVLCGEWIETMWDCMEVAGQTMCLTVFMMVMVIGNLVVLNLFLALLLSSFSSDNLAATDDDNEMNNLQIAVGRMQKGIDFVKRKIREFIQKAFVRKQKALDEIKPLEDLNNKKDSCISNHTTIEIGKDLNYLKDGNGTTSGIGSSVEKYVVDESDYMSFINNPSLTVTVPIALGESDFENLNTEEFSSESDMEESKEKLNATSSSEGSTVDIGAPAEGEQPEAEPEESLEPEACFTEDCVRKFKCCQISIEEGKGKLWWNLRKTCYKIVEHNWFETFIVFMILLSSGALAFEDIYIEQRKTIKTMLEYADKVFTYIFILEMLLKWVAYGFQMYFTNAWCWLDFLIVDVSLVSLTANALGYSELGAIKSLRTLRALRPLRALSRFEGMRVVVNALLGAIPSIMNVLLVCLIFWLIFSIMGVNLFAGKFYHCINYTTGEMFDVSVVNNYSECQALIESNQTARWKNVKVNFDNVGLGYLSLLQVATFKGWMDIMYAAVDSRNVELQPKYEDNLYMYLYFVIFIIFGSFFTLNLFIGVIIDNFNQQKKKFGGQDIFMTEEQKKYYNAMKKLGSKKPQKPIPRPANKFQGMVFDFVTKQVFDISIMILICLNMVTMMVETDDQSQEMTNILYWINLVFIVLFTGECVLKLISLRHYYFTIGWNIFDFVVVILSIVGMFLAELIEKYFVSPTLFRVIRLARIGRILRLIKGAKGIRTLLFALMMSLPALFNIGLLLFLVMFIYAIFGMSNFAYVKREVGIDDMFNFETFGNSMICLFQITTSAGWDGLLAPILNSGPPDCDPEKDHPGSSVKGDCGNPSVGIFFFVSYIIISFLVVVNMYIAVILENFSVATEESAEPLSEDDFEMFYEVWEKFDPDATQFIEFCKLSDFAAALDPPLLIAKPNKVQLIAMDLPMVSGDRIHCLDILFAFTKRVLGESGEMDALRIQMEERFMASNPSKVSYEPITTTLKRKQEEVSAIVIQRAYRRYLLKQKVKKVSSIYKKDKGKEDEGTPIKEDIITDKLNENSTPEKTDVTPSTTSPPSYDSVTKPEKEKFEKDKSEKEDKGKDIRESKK

Structure (SMILES)	IC50 (rat Nav1.2 (rNav1.2) [1]) [nM]	IC50 (rat Nav1.2 (rNav1.2) [2]) [nM]	IC50 (human Nav1.7 (hNav1.7) [3]) [nM]	IC50 (human Nav1.7 (hNav1.7) [5]) [nM]	IC50 (human Nav1.5 (hNav1.5) [4]) [nM]	IC50 (human Nav1.5 (hNav1.5) [6]) [nM]
O=S(=O)(Nc1ncns1)c1cc(F)c(Oc2cc(C3CNC3)cc(C(F)(F)F)c2)cc1F [Compound 31, 4-(3-(azetidin-3-yl)-5-(trifluoromethyl)phenoxy)-2,5-difluoro-N-(1,2,4-thiadiazol-5-yl)benzenesulfonamide]	387	~1220	286	750	~1460	–
COc1cc(Oc2cc(F)c(S(=O)(=O)Nc3nc(C)ns3)cc2F)cc(C(F)(F)F)c1 [Compound 40, 2,5-difluoro-4-[3-methoxy-5-(trifluoromethyl)phenoxy]-N-(3-methyl-1,2,4-thiadiazol-5-yl)benzene-1-sulfonamide]	–	–	> 3200	> 32000	–	> 32000
COc1cc(Oc2cc(F)c(S(=O)(=O)Nc3nc(CN4CCOCC4)ns3)cc2F)cc(C(F)(F)F)c1 [Compound 45, 2,5-difluoro-4-[3-methoxy-5-(trifluoromethyl)phenoxy]-N-[3-(morpholin-4-ylmethyl)-1,2,4-thiadiazol-5-yl]benzene-1-sulfonamide]	–	–	> 10000	> 32000	–	> 32000
O=S(=O)(Nc1ncns1)c1cc(F)c(Oc2cc(N3CCC3)cc(C(F)(F)F)c2)cc1F [Compound 48, 4-[3-(azetidin-1-yl)-5-(trifluoromethyl)phenoxy]-2,5-difluoro-N-(1,2,4-thiadiazol-5-yl)benzenesulfonamide]	–	–	142	~3060	~650	~6660
O=S(=O)(Nc1ncns1)c1cc(F)c(Oc2cc(N3CC(O)C3)cc(C(F)(F)F)c2)cc1F [Compound 49, 2,5-difluoro-4-[3-(3-hydroxyazetidin-1-yl)-5-(trifluoromethyl)phenoxy]-N-(1,2,4-thiadiazol-5-yl)benzenesulfonamide]	–	–	404	~7680	1600	~17200
N#Cc1cc(Oc2cc(C(F)(F)F)cc(C(F)(F)F)c2)ccc1S(=O)(=O)Nc1nncs1 [Example 43, 4-[3,5-bis(trifluoromethyl)phenoxy]-2-cyano-N-(1,3,4-thiadiazol-2-yl)benzene-1-sulfonamide]	–	–	> 10000	> 32000	–	> 32000
COc1cc(Oc2cc(F)c(S(=O)(=O)Nc3nc(Cc4ccccc4)ns3)cc2F)cc(C(F)(F)F)c1 [Compound 41, N-(3-benzyl-1,2,4-thiadiazol-5-yl)-2,5-difluoro-4-[3-methoxy-5-(trifluoromethyl)phenoxy]benzene-1-sulfonamide]	–	–	> 3200	> 32000	–	> 32000

The next lines start with results.

IC50 (rat Nav1.2 (rNav1.2) [1]) [nM]	IC50 (rat Nav1.2 (rNav1.2) [2]) [nM]	IC50 (human Nav1.7 (hNav1.7) [3]) [nM]	IC50 (human Nav1.7 (hNav1.7) [5]) [nM]	Structure (SMILES)	IC50 (human Nav1.5 (hNav1.5) [4]) [nM]	IC50 (human Nav1.5 (hNav1.5) [6]) [nM]
219	5850	173	712	O=C(NCc1cccc(-c2cc(C(F)(F)F)cc(C(F)(F)F)c2)c1)C1CCCC1 [Compound 56, N-({3-[3,5-bis(trifluoromethyl)phenyl]phenyl}methyl)cyclopentanecarboxamide]	462	–
928	5540	466	4440	O=C(NCc1cccc(-c2cc(C(F)(F)F)cc(C(F)(F)F)c2)c1)[C@@H]1C[C@H](F)CN1 [Compound 52, (2S,4S)-N-((3′,5′-bis(trifluoromethyl)-[1,1′-biphenyl]-3-yl)methyl)-4-fluoropyrrolidine-2-carboxamide]	1040	4050
146	1870	217	977	O=C(NCc1cc(F)c(Oc2cc(C(F)(F)F)cc(C(F)(F)F)c2)cc1F)[C@@H]1CCCN1 [Compound 4, (2S)-N-({4-[3,5-bis(trifluoromethyl)phenoxy]-2,5-difluorophenyl}methyl)pyrrolidine-2-carboxamide]	116	–
479	18700	470	8430	O=C(NCc1cc(F)c(Oc2cc(C(F)(F)F)cc(C(F)(F)F)c2)cc1F)c1ncns1 [Compound 17, N-({4-[3,5-bis(trifluoromethyl)phenoxy]-2,5-difluorophenyl}methyl)-1,2,4-thiadiazole-5-carboxamide]	~2500	–
